Numbers after ± are expanded uncertainties.

The conditions of data set [1]: Liquid; for mass density: 298.15 K, 101.33 kPa.
Data set [2] in a line: refractive index (Na D-line) (dimensionless). Conditions: 298.15 K; 101.33 kPa; Liquid.

What is called mass density is mass per unit of volume. As a reminder, the refractive index is a measure of how strongly the sample bends light. With `CCO` [ethanol], in data set [1] (Vibrating tube method), the mass density is recorded as 785.04 ± 0.51 kg/m3. In data set [1], the Normal boiling temperature is 78.26 ± 0.1 °C. The refractive index in data set [2] worked out at 1.3592 ± 0.0006.

Consider `CC1CCCCC1` [methylcyclohexane], for which, in data set [1], the mass density is listed as 764.87 ± 0.44 kg/m3 and the Normal boiling temperature came out at 100.81 ± 0.5 °C. Besides, the refractive index in data set [2] came to 1.4204 ± 0.0006.

Turning to `Cc1ccc(C)cc1` [1,4-dimethylbenzene], the mass density in data set [1] (Vibrating tube method) is recorded as 856.55 ± 0.56 kg/m3. Moreover, in data set [1], the Normal boiling temperature was 138.08 ± 0.5 °C. For the same compound, the refractive index in data set [2] is 1.493 ± 0.001.

The values are drawn from the NIST ThermoML archive (doi:10.1021/je0342318).
